Assay results published in ChEMBL document CHEMBL1201862, “PubChem BioAssay data set” (2004).
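Cultured in 96-well plates, cells were exposed to test compound for 48 hours across five concentrations. GI50: concentration for 50% inhibition of growth.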 Calls of active or inactive are those of the source. No stated cut-off is given here; in the data, active = GI50 up to about 1.1 µM and inactive = higher.

Experiments:
Test in all cases: NCI tumour cell line growth inhibition, 48 h
[1] = test system: CCRF-CEM
[2] = test system: RXF 393
[3] = test system: SK-MEL-28
[4] = test system: ACHN
[5] = test system: 786-0
[6] = test system: RPMI-8226
[7] = test system: NCI-H23
[8] = test system: LXFL 529
[9] = test system: SK-MEL-2
[10] = test system: HT-29
[11] = test system: CAKI-1
[12] = test system: EKVX
[13] = test system: UACC-257
[14] = test system: SF-295
[15] = test system: HL-60
[16] = test system: SK-MEL-5
[17] = test system: OVCAR-3
[18] = test system: MDA-MB-231
[19] = test system: NCI/ADR-RES
[20] = test system: DU-145

Measured: GI50

CC1(C)NC(=O)N(CCCCCCN2C(=O)NC(C)(C)C2=O)C1=O
inactive: [1] > 100 µM | [2] > 100 µM | [3] > 100 µM | [4] > 100 µM | [5] > 100 µM | [6] > 100 µM | [7] > 100 µM | [8] > 100 µM | [9] > 100 µM | [10] > 100 µM | [11] > 100 µM | [12] > 100 µM | [13] > 100 µM

O=C(CO)CC(=O)C(=O)Nc1ccccc1
inactive: [1] > 100 µM | [2] > 100 µM | [3] > 100 µM | [14] > 100 µM | [4] > 100 µM | [5] > 100 µM | [15] > 100 µM | [16] > 100 µM | [7] > 100 µM | [8] > 100 µM | [9] > 100 µM | [10] > 100 µM | [17] > 100 µM | [12] > 100 µM | [13] > 100 µM

CC[C@]12C=CCN3CC[C@@]4(c5cc(Br)c(OC)cc5N(C)[C@H]4[C@@](O)(C(=O)N[C@@H](Cc4ccc(O)cc4)C(=O)OC)[C@@H]1O)[C@@H]32
inactive: [1] 21.6 µM | [2] 17.6 µM | [3] > 100 µM | [14] 19.3 µM | [4] 27.6 µM | [5] 49.9 µM | [15] 26.7 µM | [16] 17.6 µM | [6] 15.6 µM | [7] 52.4 µM | [18] 11 µM | [19] 20.7 µM | [9] 20.1 µM | [20] 55.1 µM | [10] 14.6 µM | [17] 25.6 µM | [11] 18.7 µM | [12] 29.2 µM | [13] 16.3 µM

O=C1CSC(c2cccs2)N1c1nc2cc3sc(N4C(=O)CSC4c4cccs4)nc3cc2s1 (stereo not given)
inactive: [1] 25.2 µM | [2] > 50 µM | [3] > 50 µM | [14] > 50 µM | [4] > 50 µM | [5] > 50 µM | [15] > 50 µM | [16] 22.5 µM | [6] > 50 µM | [7] 28.8 µM | [18] > 50 µM | [19] 43.1 µM | [9] > 50 µM | [20] > 50 µM | [10] 11.9 µM | [17] > 50 µM | [11] 47.4 µM | [12] 16 µM | [13] > 50 µM

CCCCCCCCCCCCCCCC(=O)OCC1OC(n2cc(F)c(=O)[nH]c2=O)C(NC(=O)OCc2ccccc2)C(O)C1O (stereo not given)
inactive: [1] 11 µM | [14] 16.9 µM | [4] 34.1 µM | [5] 18.7 µM | [15] 20.2 µM | [16] 18.2 µM | [6] 15.7 µM | [7] 18.5 µM | [8] 16.7 µM | [9] 16 µM | [10] 17.8 µM | [17] 16.1 µM | [11] 16.3 µM | [12] 22 µM

O=C(Nc1cccc(-c2cn3ccccc3n2)c1)c1ccncc1
inactive: [1] 27.3 µM | [2] 64.4 µM | [3] 48.5 µM | [14] 40.7 µM | [4] 41.1 µM | [5] 64.4 µM | [15] 20.1 µM | [16] 24.3 µM | [6] 17.1 µM | [7] 23.6 µM | [18] 32 µM | [19] 21.7 µM | [9] 22.6 µM | [20] 49.4 µM | [10] 35.8 µM | [17] 35.1 µM | [11] 31.3 µM | [12] 60.1 µM | [13] 29.9 µM

CN1C(=O)C(O)C[C@@H]1c1ccccc1 (stereo not given in full)
inactive: [1] > 100 µM | [2] > 100 µM | [3] > 100 µM | [14] > 100 µM | [4] > 100 µM | [5] > 100 µM | [15] > 100 µM | [16] > 100 µM | [6] > 100 µM | [7] > 100 µM | [18] > 100 µM | [19] > 100 µM | [9] > 100 µM | [20] > 100 µM | [10] > 100 µM | [17] > 100 µM | [11] > 100 µM | [12] > 100 µM | [13] > 100 µM

O=c1nc(N2CCNCC2)oc2cc(Cl)oc(=O)c12
inactive: [1] 1.83 µM | [2] 9.1 µM | [3] 3.13 µM | [14] 7.13 µM | [4] 6.87 µM | [5] 3.34 µM | [15] 1.9 µM | [16] 3.14 µM | [6] 1.67 µM | [7] 7.24 µM | [18] 12.1 µM | [19] 6.47 µM | [9] 8.49 µM | [20] 5.5 µM | [10] 3.91 µM | [17] 4.06 µM | [11] 2.59 µM | [12] 6.28 µM | [13] 7.57 µM

O=C1C2Cc3ccccc3CN2C(=O)N1CCN1CCCC1 (stereo not given)
inactive: [1] > 100 µM | [3] > 100 µM | [14] > 100 µM | [4] > 100 µM | [5] > 100 µM | [15] > 100 µM | [16] > 100 µM | [6] > 100 µM | [7] > 100 µM | [8] > 100 µM | [9] > 100 µM | [17] > 100 µM | [11] 64.1 µM

CSc1nc(C)cc(=O)n1C1OC(COC(C)=O)C(OC(C)=O)C(OC(C)=O)C1OC(C)=O (stereo not given)
inactive: [1] > 100 µM | [3] > 100 µM | [14] > 100 µM | [4] > 100 µM | [5] > 100 µM | [15] > 100 µM | [16] > 100 µM | [6] > 100 µM | [7] > 100 µM | [8] > 100 µM | [9] 53.3 µM | [10] > 100 µM | [17] > 100 µM | [12] > 100 µM | [13] > 100 µM

Clc1ccc2c(c1)C1C(CO2)C(c2ccccc2)=NN1c1ccccc1 (stereo not given)
inactive: [1] 24.9 µM | [2] 24.2 µM | [3] 54.1 µM | [14] 35.6 µM | [4] 35.2 µM | [5] 24.9 µM | [15] 17.3 µM | [6] 12.4 µM | [7] 33.7 µM | [8] 29.6 µM | [9] 26.9 µM | [10] 76.9 µM | [17] 23 µM | [12] 11.8 µM | [13] 49.7 µM

C=C[C@@]1(C)CC(=O)[C@]2(O)[C@@]3(C)[C@@H](O)CCC(C)(C)[C@@H]3[C@H](O)[C@@H](OC(C)=O)[C@@]2(C)O1
inactive: [1] > 100 µM | [2] 11.2 µM | [3] > 100 µM | [14] > 100 µM | [4] > 100 µM | [5] > 100 µM | [15] 48.6 µM | [16] > 100 µM | [6] 18.7 µM | [7] > 100 µM | [18] 6.18 µM | [19] > 100 µM | [9] > 100 µM | [20] > 100 µM | [10] 68.7 µM | [17] > 100 µM | [11] 27.1 µM | [12] > 100 µM | [13] > 100 µM

CCOP(=O)(OCC)C(Nc1ccc(F)cc1)c1cccc([N+](=O)[O-])c1 (stereo not given)
inactive: [1] 62.4 µM | [2] 54.3 µM | [3] > 100 µM | [14] > 100 µM | [4] > 100 µM | [5] > 10 µM | [15] 41.3 µM | [16] 83.9 µM | [6] 76.9 µM | [7] > 100 µM | [18] 71.9 µM | [19] 47.1 µM | [9] 49.7 µM | [20] > 100 µM | [10] 74.6 µM | [17] > 100 µM | [11] > 100 µM | [12] 90.4 µM | [13] > 100 µM

Cc1cc(C)c(C[C@H]2COC(=O)[C@]2(O)Cc2c(C)cc(C)cc2C)c(C)c1
inactive: [1] 31.7 µM | [2] 11.2 µM | [3] 24.7 µM | [14] 16.9 µM | [4] 18.2 µM | [5] 20.8 µM | [15] 14.7 µM | [16] 17 µM | [6] 25.2 µM | [7] 21 µM | [18] 16.7 µM | [19] 15.6 µM | [9] 23.1 µM | [20] 15.2 µM | [10] 27.9 µM | [17] 15 µM | [11] 18.6 µM | [12] 12.6 µM | [13] 17.7 µM

COc1ccc(/C=C/CO)cc1OC
inactive: [2] > 100 µM | [3] > 100 µM | [14] > 100 µM | [4] > 100 µM | [5] > 100 µM | [16] > 100 µM | [6] > 100 µM | [7] > 100 µM | [8] > 100 µM | [9] > 100 µM | [10] > 100 µM | [17] > 100 µM | [12] > 100 µM | [13] > 100 µM

COc1c2ccoc2cc2oc(=O)ccc12 [BERGAPTEN]
inactive: [1] > 100 µM | [2] > 100 µM | [3] > 100 µM | [14] > 100 µM | [4] > 100 µM | [5] > 100 µM | [15] > 100 µM | [16] > 100 µM | [6] > 100 µM | [7] > 100 µM | [18] > 100 µM | [19] > 100 µM | [9] > 100 µM | [20] > 100 µM | [10] > 100 µM | [17] > 100 µM | [11] > 100 µM | [12] 18.7 µM | [13] > 100 µM
